This note sets out measurements from article PMC8470367, “Antihypertensive and Probiotic Effects of Hidakakombu (Saccharina angustata) Fermented by Lacticaseibacillus casei 001” (Foods, 2021).

As usually defined, the IC50 is the concentration that inhibits the measured activity by half. Lower therefore signals higher potency.

The target of this test is T1, angiotensin-converting enzyme (ACE).
T1 construct: enzyme of the commercial ACE-kit WST (Dojin / Dojindo)
Description: ACE-kit WST, microplate absorbance. Format: biochemical. The note with it: measured on HPLC fraction Fr. B isolated from fermented kelp extract, identified as D-Trp; pH and temperature not given.

In brackets after ≈: the same amount, converted by molar mass.

Compound `N[C@H](Cc1c[nH]c2ccccc12)C(=O)O` [D-Trp] gave an IC50 of 73 µg/mL (≈ 357 µM).
